Common to all, as to test: FRET by acceptor photobleaching, DHE donor to GFP acceptor, fixed transfected HEK293-FT cells
Holding throughout (format): cell-based

Test [1] addresses T1, CUP-1-GFP (Cholesterol Uptake Protein-1; ZK721.1/tag-130) (Caenorhabditis elegans, UniProt Q9GYF0, Y576G).
T1 construct: gene chup-1; full-length CUP-1 (stop codon removed) with C-terminal EGFP (pEGFP-N1), transiently expressed in HEK293-FT cells; GFP is the FRET acceptor
T1 sequence (Q9GYF0 19-756 Y576G): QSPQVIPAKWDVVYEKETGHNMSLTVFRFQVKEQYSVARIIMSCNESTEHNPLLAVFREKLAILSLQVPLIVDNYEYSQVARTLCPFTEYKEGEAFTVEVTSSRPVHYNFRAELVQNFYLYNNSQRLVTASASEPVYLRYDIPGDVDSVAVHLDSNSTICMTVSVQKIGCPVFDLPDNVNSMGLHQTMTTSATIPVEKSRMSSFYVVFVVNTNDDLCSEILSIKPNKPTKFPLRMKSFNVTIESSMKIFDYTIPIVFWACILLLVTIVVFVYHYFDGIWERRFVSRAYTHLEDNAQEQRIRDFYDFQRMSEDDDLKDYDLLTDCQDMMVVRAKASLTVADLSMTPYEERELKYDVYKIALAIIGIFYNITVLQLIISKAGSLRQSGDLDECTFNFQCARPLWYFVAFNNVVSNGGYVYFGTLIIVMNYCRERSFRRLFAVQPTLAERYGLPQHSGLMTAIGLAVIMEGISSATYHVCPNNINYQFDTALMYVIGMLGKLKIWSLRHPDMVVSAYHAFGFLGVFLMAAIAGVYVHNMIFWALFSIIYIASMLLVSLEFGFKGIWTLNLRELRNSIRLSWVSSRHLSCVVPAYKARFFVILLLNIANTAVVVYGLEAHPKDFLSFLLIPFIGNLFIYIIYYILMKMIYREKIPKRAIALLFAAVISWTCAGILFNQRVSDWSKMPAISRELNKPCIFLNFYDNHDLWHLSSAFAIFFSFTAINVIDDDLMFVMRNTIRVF
The following applies: 5 uM DHE, 35 min, 37 °C; transmembrane CRAC motif mutant.

For test [2], the target named is T2, CUP-1-GFP (Cholesterol Uptake Protein-1; ZK721.1/tag-130) (Caenorhabditis elegans, UniProt Q9GYF0, Y126G/Y576G).
T2 construct: gene chup-1; full-length CUP-1 (stop codon removed) with C-terminal EGFP (pEGFP-N1), transiently expressed in HEK293-FT cells; GFP is the FRET acceptor
T2 sequence (Q9GYF0 19-756 Y126G/Y576G): T1 sequence (Q9GYF0 19-756 Y576G) with Y108G
The settings on record: 5 uM DHE, 35 min, 37 °C; double CRAC mutant.

In test [3] the target is T3, CUP-1-GFP (Cholesterol Uptake Protein-1; ZK721.1/tag-130) (Caenorhabditis elegans, UniProt Q9GYF0, Y126G).
T3 construct: gene chup-1; full-length CUP-1 (stop codon removed) with C-terminal EGFP (pEGFP-N1), transiently expressed in HEK293-FT cells
T3 sequence (Q9GYF0 19-756 Y126G): T1 sequence (Q9GYF0 19-756 Y576G) with Y108G, G558Y
The following applies: 5 uM DHE, 35 min, 37 °C; extracellular CRAC motif mutant.

Test [4] concerns the target T4, CUP-1-GFP (Cholesterol Uptake Protein-1; ZK721.1/tag-130) (Caenorhabditis elegans, UniProt Q9GYF0).
T4 construct: gene chup-1; full-length CUP-1 (stop codon removed) with C-terminal EGFP (pEGFP-N1), transiently expressed in HEK293-FT cells
T4 sequence (Q9GYF0 19-756): T1 sequence (Q9GYF0 19-756 Y576G) with G558Y
The settings on record: 5 uM DHE, 35 min, 37 °C; soluble GFP control.

Positions count from the first letter of the chain named.

As to `CC(C)[C@@H](C)/C=C/[C@@H](C)[C@H]1CC[C@H]2C3=CC=C4C[C@@H](O)CC[C@]4(C)C3=CC[C@]12C` [DHE, Dehydroergosterol], the FRETeff is listed as 16.7% in test [1], 17.8% in test [2], “Mutagenization of the extracellular CRAC motif did not result in a statistically significant reduction” in test [3] and > 28% in test [4].

For the origin of these results see publication PMC3313951, “CUP-1 Is a Novel Protein Involved in Dietary Cholesterol Uptake in Caenorhabditis elegans” (PLoS ONE, 2012).
